Test results published in PubChem BioAssay AID330 (DTP/NCI, 2004).
Values joined by “and” are separate entries in the source; they are usually repeats but may differ in a detail not shown here. Identical values can stand only once. Inconclusive results and toxic doses are left out. How the source made its calls: active means survival T/C of 150% or more; inactive means T/C below 125% in these data.

System: P388 leukemia ip, CD2F1 mice, survival T/C
Experiment: NCI In Vivo Anticancer Drug Screen. Data for tumor model P388 Leukemia (intraperitoneal) in CD2F1 (CDF1) mice
Settings: endpoint: median survival time, higher = longer survival
How it was run: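 Mice carrying the transplanted tumor received test compound or vehicle. Survival was recorded in each group, and the value is the treated-group measurement divided by that of the vehicle-treated control group.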

[1] = dose: 50.0 mg/kg/injection, schedule: Q01DX009 (ip), vehicle: saline
[2] = dose: 100.0 mg/kg/injection, schedule: Q01DX009 (ip), vehicle: saline
[3] = dose: 60.0 mg/kg/injection, schedule: Q01DX005 (ip), vehicle: saline with Tween-80
[4] = dose: 120.0 mg/kg/injection, schedule: Q01DX005 (ip), vehicle: saline with Tween-80
[5] = dose: 240.0 mg/kg/injection, schedule: Q01DX005 (ip), vehicle: saline with Tween-80
[6] = dose: 25.0 mg/kg/injection, schedule: Q01DX009 (ip), vehicle: saline with Tween-80
[7] = dose: 50.0 mg/kg/injection, schedule: Q01DX009 (ip), vehicle: saline with Tween-80

Measured: T/C

CCCCOc1cccc2c(NCCCNCCCNc3c4ccccc4nc4c(OCCCC)cccc34)c3ccccc3nc12
inactive: dose: 0.63 mg/kg/injection, schedule: Q01DX009 (ip), vehicle: other 114 % of control | dose: 1.25 mg/kg/injection, schedule: Q01DX009 (ip), vehicle: other 121 % of control | dose: 2.5 mg/kg/injection, schedule: Q01DX009 (ip), vehicle: other 120 % of control and 124 % of control | dose: 5.0 mg/kg/injection, schedule: Q01DX009 (ip), vehicle: other 100 % of control

CCc1cc(CN2CCN(CCO)CC2)c(O)c(CN2CCN(CCO)CC2)c1
inactive: dose: 60.0 mg/kg/injection, schedule: Q01DX005 (ip), vehicle: saline 102 % of control | dose: 120.0 mg/kg/injection, schedule: Q01DX005 (ip), vehicle: saline 97 % of control | dose: 240.0 mg/kg/injection, schedule: Q01DX005 (ip), vehicle: saline 99 % of control

O=C(O)CC1(C(=O)O)CCC(O)CC1 (stereo unspecified)
inactive: [1] 100 % of control | [2] 107 % of control | dose: 200.0 mg/kg/injection, schedule: Q01DX009 (ip), vehicle: saline 100 % of control

CC[Si](C#CCOc1ccccc1C1OCCO1)(CC)CC
inactive: [3] 105 % of control | [4] 101 % of control | [5] 99 % of control

O=C1CCC2(O)[C@@H]3Cc4ccc(O)c5c4[C@]2(CCN3Cc2ccoc2)C1O5 (stereo partly specified)
inactive: [1] 124 % of control | dose: 66.0 mg/kg/injection, schedule: Q01DX009 (ip), vehicle: saline 107 % of control and 91 % of control | [2] 105 % of control and 121 % of control and 96 % of control | dose: 150.0 mg/kg/injection, schedule: Q01DX009 (ip), vehicle: saline 98 % of control and 116 % of control

CCOC1=C(C#N)C(SC)=CS(C)(=O)=C1 (stereo unspecified)
inactive: dose: 50.0 mg/kg/injection, schedule: Q04DX003 (ip), vehicle: Klucel (hydroxypropylcellulose) (HPC) 98 % of control | dose: 100.0 mg/kg/injection, schedule: Q04DX003 (ip), vehicle: Klucel (hydroxypropylcellulose) (HPC) 97 % of control | dose: 200.0 mg/kg/injection, schedule: Q04DX003 (ip), vehicle: Klucel (hydroxypropylcellulose) (HPC) 101 % of control

Nc1ncnc2c(C3OC(CO)C(O)C3O)[nH]nc12 (stereo unspecified)
inactive: dose: 1.25 mg/kg/injection, schedule: Q01DX009 (ip), vehicle: saline 109 % of control | dose: 2.5 mg/kg/injection, schedule: Q01DX009 (ip), vehicle: saline 109 % of control | dose: 5.0 mg/kg/injection, schedule: Q01DX009 (ip), vehicle: saline 118 % of control | dose: 5.56 mg/kg/injection, schedule: Q01DX009 (ip), vehicle: saline 109 % of control | dose: 6.25 mg/kg/injection, schedule: Q01DX009 (ip), vehicle: saline sonified 104 % of control | dose: 8.33 mg/kg/injection, schedule: Q01DX009 (ip), vehicle: saline 90 % of control | dose: 12.0 mg/kg/injection, schedule: Q01DX009 (ip), vehicle: saline sonified 105 % of control | dose: 12.5 mg/kg/injection, schedule: Q01DX009 (ip), vehicle: saline 122 % of control | dose: 18.7 mg/kg/injection, schedule: Q01DX009 (ip), vehicle: saline 90 % of control

C(CCC1CO1)CC1CO1 (stereo unspecified)
inactive: dose: 100.0 mg/kg/injection, schedule: Q04DX002 (ip), vehicle: Klucel (hydroxypropylcellulose) (HPC) 122 % of control

Nc1nccc(Cl)n1
inactive: dose: 6.25 mg/kg/injection, schedule: Q01DX009 (ip), vehicle: saline with Tween-80 98 % of control | dose: 12.5 mg/kg/injection, schedule: Q01DX009 (ip), vehicle: saline with Tween-80 100 % of control | [6] 100 % of control | [7] 100 % of control

O=C(O)CCCC(C(=O)O)N1C(=O)c2ccccc2C1=O (stereo unspecified)
inactive: dose: 50.0 mg/kg/injection, schedule: Q01DX005 (ip), vehicle: saline with Tween-80 94 % of control | dose: 100.0 mg/kg/injection, schedule: Q01DX005 (ip), vehicle: saline with Tween-80 93 % of control | dose: 200.0 mg/kg/injection, schedule: Q01DX005 (ip), vehicle: saline with Tween-80 87 % of control

CN(c1ccccc1)S(=O)c1ccccc1 (stereo unspecified)
inactive: [6] 94 % of control | [7] 103 % of control | dose: 100.0 mg/kg/injection, schedule: Q01DX009 (ip), vehicle: saline with Tween-80 110 % of control

COc1ccc(CCN2CC(=O)N3CSCC3C2=O)cc1OC (stereo unspecified)
inactive: [3] 100 % of control | [4] 95 % of control | [5] 95 % of control

O=C(Nc1cc(Nc2ccc(NC(=O)c3ccccc3)c3c2C(=O)c2ccccc2C3=O)cc2c1C(=O)c1ccccc1C2=O)c1ccccc1
inactive: dose: 50.0 mg/kg/injection, schedule: Q01DX005 (ip), vehicle: Klucel (hydroxypropylcellulose) (HPC) 103 % of control | dose: 100.0 mg/kg/injection, schedule: Q01DX005 (ip), vehicle: Klucel (hydroxypropylcellulose) (HPC) 103 % of control | dose: 200.0 mg/kg/injection, schedule: Q01DX005 (ip), vehicle: Klucel (hydroxypropylcellulose) (HPC) 97 % of control
